Reference: patent EP1081131A1 (priority 1998, dated 1999)

Key:
[1] = Acute toxicity on mice (per os); settings: mouse, in vivo, white mice, per os in 0.5% solution of starch for 5 days; for LD50 at 5 days: oral; for LD50: po
Procedure: A study of acute toxicity was carried out according to a standard method on white mice. The animals received the preparation per os in a 0.5% solution of starch for 5 days.

[2] = Carrying of cations from one aqueous phase to another through a layer of nonpolar organic solvent (lipophil membrane); type: physicochemical
Procedure: Purification of the prepared compounds is controlled by the TLC method. The meanings of Rf of the claimed compounds were determined using "Sorbfil" plates (Silicagel CTX-1A, UV) (Russia) or "Silufol- UV" plates (Czechoslovakia). The composition and structure of the new compounds were confirmed by element analysis (C,H,N,O analyzer of the Karlo Erba firm) and also IR (Specord-UV-.751R) and PMR spectroscopy (Tesla BS-597A, 100 MHz). An UZDN-2T ultrasound disperser at a frequency of 22 kHz was used to carry out the reaction with ultrasound action. The cation-carrying properties of the claimed compounds were studied in accordance with a generally accepted method, which consists of studying the carrying of a cation from one aqueous phase to another aqueous phase through a layer of a nonpolar organic solvent.

H37Rv = experiment: Antimycobacterial activity in vitro, vertical diffusion on dense nutrient; type: cell-based, mycobacteria; settings: Typical strain H37Rv
M. bovis = type: cell-based; settings: Typical strain M. bovis
M. smegmatis = experiment: Antimycobacterial activity in vitro, vertical diffusion on dense nutrient; type: cell-based; settings: Atypical strain M. smegmatis
M. avium = experiment: as above; type: cell-based; settings: Atypical strain M. avium
M.fortuirum = experiment: as above; type: cell-based; settings: Atypical strain M.fortuirum
E. coli = experiment: Antibacterial activity in vitro, preparation in a cavity of nutrient agar; type: cell-based
Procedure: (§1) The antibacterial activity of the claimed compounds was studied with the method of seeding solutions of the preparation in a cavity. The test-microbe was put in a Petri dish containing a simple nutrient agar. The preparation in an amount of 0.02 ml in necessary concentrations was put in a cavity located in the middle of the Petri dish. The results were taken after 24-hour incubation in a thermostat at 37°C by determination of the zone of delay of growth of the microorganisms along the edges of the cavity.

Lactobacteria = experiment: as above; type: cell-based; settings: Table 7
Procedure: as §1

S. epidermides = experiment: as above; type: cell-based; settings: Table 7
Procedure: as §1

[3] = system: Sensitive to streptomycin, rifamycin and isoniazid; experiment: Bacteriostatic activity on patient strains (Table 4); type: cell-based, mycobacteria of tuberculosis; settings: taken from patients, Central SRI of Tuberculosis RAMS 1997
Candida Albicans = experiment: Antibacterial activity in vitro, preparation in a cavity of nutrient agar; type: cell-based; settings: Table 6
Procedure: as §1

P. vulgaris = experiment: as above; type: cell-based; settings: Table 6
Procedure: as §1

S. aureus = experiment: as above; type: cell-based; settings: Table 6
Procedure: as §1

strain H37Rv = experiment: Therapeutic action on infected guinea pigs; type: in vivo; settings: for Average change in weight of pigs during test / Weight of lungs / Weight of spleen: 21 mg/kg (isoniazid equivalent dose), 5 times a week for 60 days

| Molecule | Antimycobacterial activity of claimed preparations in tests In vitro (H37Rv) | Antimycobacterial activity of claimed preparations in tests In vitro (M. avium) | Antimycobacterial activity of claimed preparations in tests In vitro (M.fortuirum) | Inhibiting level (E. coli; Table 7) | Inhibiting level (Lactobacteria) | Inhibiting level (S. epidermides) | also measured |
| --- | --- | --- | --- | --- | --- | --- | --- |
| O=Cc1ccccc1OCCOCCOc1ccccc1C=O | – | – | – | – | – | – | LD50 at 5 days [1]: > 2000 mg/kg |
| 1,5-Bis(2-phenyl hydrazonomethyl phenoxy)-3-oxapentane | – | – | – | – | – | – | Speed of carrying ([2]; Cation of metal Cu): 2.0 mol h^-1 10^-7; Speed of carrying ([2]; Cation of metal Fe): 60.0 mol h^-1 10^-7; Speed of carrying ([2]; Cation of metal K): 34.5 mol h^-1 10^-7; Speed of carrying ([2]; Cation of metal Na): 28.7 mol h^-1 10^-7 |
| O=Cc1ccc(Cl)cc1OCCOc1cc(Cl)ccc1C=O [1,2-Bis(2-formyl-5-chlorphenoxy)-ethane] | 0.4 µg/mL | 25.0 µg/mL | 25.0 µg/mL | – | – | – | Antimycobacterial activity of claimed preparations in tests In vitro (M. bovis): 0.4 µg/mL; Antimycobacterial activity of claimed preparations in tests In vitro (M. smegmatis): 6.3 to 12.5 µg/mL |
| COc1cc(C=NNC(=O)c2ccccc2)ccc1OCCOc1ccc(C=NNC(=O)c2ccccc2)cc1OC [1,2-Bis(2-methoxy-4-benzoyl hydrazonomethylphenoxy)-ethane] | – | – | – | >50 µg/mL | >50 µg/mL | >50 µg/mL | – |
| O=C(NN=Cc1c(OCCOc2ccc3ccccc3c2C=NNC(=O)c2ccccc2)ccc2ccccc12)c1ccccc1 [1,2-Bis[2(benzoyl hydrazonomethylnaphthoxy-2)]-ethane] | – | – | – | >50 µg/mL | >50 µg/mL | >50 µg/mL | – |
| O=C(NN=Cc1ccccc1OCCOCCOc1ccccc1C=NNC(=O)c1ccccc1)c1ccccc1 [1,5-Bis(2-benzoyl hydrazonomethylphenoxy)-3-oxapentane] | – | – | – | – | – | – | LD50 [1]: > 1000 mg/kg |
| O=C(NN=Cc1ccccc1OCCOCCOc1ccccc1C=NNC(=O)c1ccncc1)c1ccncc1 [1,5-Bis(2-isonicotinoyl hydrazonomethylphenoxy)-3-oxapentane] | 0.01 µg/mL | 25.0 µg/mL | 12.5 µg/mL | – | – | – | Antimycobacterial activity of claimed preparations in tests In vitro (M. bovis): 0.01 µg/mL; Antimycobacterial activity of claimed preparations in tests In vitro (M. smegmatis): 12.5 µg/mL; Inhibiting level [3]: 0.58 µg/mL; Inhibiting level (Candida Albicans): >500 µg/mL; Inhibiting level (E. coli; Table 6): >500 µg/mL; Inhibiting level (P. vulgaris): >500 µg/mL; Inhibiting level (S. aureus): >500 µg/mL |
| O=Cc1ccccc1OCCOc1ccccc1C=O [1,8-Bis(2-formylphenoxy)-ethane] | – | – | – | >200 µg/mL | >200 µg/mL | >200 µg/mL | – |
| O=C(NN=Cc1ccccc1OCCOCCOCCOc1ccccc1C=NNC(=O)c1ccncc1)c1ccncc1 [1,8-bis(2-isonicotinoyl hydrazonomethylphenoxy)-3,6-dioxaoctane] | 0.05 µg/mL | 25.0 µg/mL | 12.5 µg/mL | – | – | – | Antimycobacterial activity of claimed preparations in tests In vitro (M. smegmatis): 12.5 µg/mL; Inhibiting level (Candida Albicans): >500 µg/mL; Inhibiting level (E. coli; Table 6): >500 µg/mL; Inhibiting level (P. vulgaris): >500 µg/mL; Inhibiting level (S. aureus): >500 µg/mL; LD50 [1]: > 2000 mg/kg; Average change in weight of pigs during test (strain H37Rv): 148.80 ± 29.40 g; Weight of lungs (strain H37Rv): 4.90 ± 0.90 g; Weight of spleen (strain H37Rv): 8.98 ± 0.15 g |
| O=C(NN=Cc1ccccc1OCCCCOCCCCOc1ccccc1C=NNC(=O)c1cccnc1)c1cccnc1 [1,9-Bis(2-nicotinoyl hydrazonomethylphenoxy)-5-oxanonon] | – | – | – | >100 µg/mL | >100 µg/mL | >100 µg/mL | – |
| O=C(NN=Cc1ccccc1OCCOCCOCCOCCOc1ccccc1C=NNC(=O)c1ccncc1)c1ccncc1 [1.11-Bis(2-isonicotinoyl hydrazonomethylphenoxy)-3,6,9-trioxaundecane] | – | – | – | >50 µg/mL | >50 µg/mL | >50 µg/mL | – |
| C=CCSc1nc2ccc(NC(=O)c3ccccc3Cl)cc2s1 [Compound formula (II), 2-(allylthio)-6-(2-chlorobenzoylamino)benzothiazole, reference compound] | 10.0 µg/mL | 25.0 µg/mL | 10.0 µg/mL | – | – | – | – |
| NNC(=O)c1ccncc1 [Isoniazid, hydrazide of isonicotinic acid, reference compound] | 0.05 µg/mL | 50.0 µg/mL | 50.0 µg/mL | – | – | – | Antimycobacterial activity of claimed preparations in tests In vitro (M. bovis): 0.05 µg/mL; Antimycobacterial activity of claimed preparations in tests In vitro (M. smegmatis): 50.0 µg/mL; Inhibiting level [3]: 0.29 µg/mL; LD50 at 5 days [1]: 363 mg/kg; Average change in weight of pigs during test (strain H37Rv): 180.60 ± 18.80 g; Weight of lungs (strain H37Rv): 4.49 ± 0.80 g; Weight of spleen (strain H37Rv): 9.34 ± 0.30 g; tuberculosis changes after the end of the course of treatment (strain H37Rv; after 60 days of treatment): detected as morphological, not as bacteriological |
| O=C(NN=Cc1cccc(OCCOCCOCCOc2cccc(C=NNC(=O)c3cccnc3)c2)c1)c1cccnc1.[Ni] [[1,8-Bis(3-nicotinoyl hydrazonomethyl phenoxy)-3,6-dioxaoctanejnickel(II)] | – | – | – | >50 µg/mL | >50 µg/mL | >50 µg/mL | – |
